Assay results taken from the kinase profiling compilation of Christmann-Franck et al. (2016).

How the values were obtained:
Assay in all cases: KINOMEscan competition binding
[1] = biological target: BRSK2 (human) (UniProt Q8IWQ3); settings: compound 10.0 µM
[2] = biological target: CDK16 (human) (UniProt Q00536); settings: compound 10.0 µM
[3] = biological target: CIT (human) (UniProt O14578); settings: compound 10.0 µM
[4] = biological target: CLK1 (human) (UniProt P49759); settings: for kinase still bound, per cent of control: compound 10.0 µM
CLK1 (human), sequence (P49759 whole entry, looked up): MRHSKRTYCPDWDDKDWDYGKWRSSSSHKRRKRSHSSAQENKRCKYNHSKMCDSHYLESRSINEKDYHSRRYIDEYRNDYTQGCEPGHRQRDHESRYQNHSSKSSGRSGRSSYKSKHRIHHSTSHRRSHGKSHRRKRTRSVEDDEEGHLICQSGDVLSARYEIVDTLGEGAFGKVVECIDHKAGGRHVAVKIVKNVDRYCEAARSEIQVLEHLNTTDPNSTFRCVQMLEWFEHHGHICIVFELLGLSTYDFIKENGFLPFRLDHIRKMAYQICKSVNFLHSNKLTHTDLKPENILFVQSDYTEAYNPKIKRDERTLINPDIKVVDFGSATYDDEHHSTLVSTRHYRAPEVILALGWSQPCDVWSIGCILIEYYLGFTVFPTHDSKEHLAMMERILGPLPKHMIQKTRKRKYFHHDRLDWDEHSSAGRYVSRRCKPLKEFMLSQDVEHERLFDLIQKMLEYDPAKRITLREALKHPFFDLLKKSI

[5] = biological target: CLK3 (human) (UniProt P49761); settings: compound 10.0 µM
[6] = biological target: CLK4 (human) (UniProt Q9HAZ1); settings: compound 10.0 µM
[7] = biological target: CSNK1D (human) (UniProt P48730); settings: compound 10.0 µM
[8] = biological target: DAPK1 (human) (UniProt P53355); settings: for kinase still bound, per cent of control: compound 10.0 µM
[9] = biological target: DCLK3 (human) (UniProt Q9C098); settings: compound 10.0 µM
[10] = biological target: DMPK (human) (UniProt Q09013); settings: compound 10.0 µM
DMPK (human), sequence (Q09013 whole entry, looked up): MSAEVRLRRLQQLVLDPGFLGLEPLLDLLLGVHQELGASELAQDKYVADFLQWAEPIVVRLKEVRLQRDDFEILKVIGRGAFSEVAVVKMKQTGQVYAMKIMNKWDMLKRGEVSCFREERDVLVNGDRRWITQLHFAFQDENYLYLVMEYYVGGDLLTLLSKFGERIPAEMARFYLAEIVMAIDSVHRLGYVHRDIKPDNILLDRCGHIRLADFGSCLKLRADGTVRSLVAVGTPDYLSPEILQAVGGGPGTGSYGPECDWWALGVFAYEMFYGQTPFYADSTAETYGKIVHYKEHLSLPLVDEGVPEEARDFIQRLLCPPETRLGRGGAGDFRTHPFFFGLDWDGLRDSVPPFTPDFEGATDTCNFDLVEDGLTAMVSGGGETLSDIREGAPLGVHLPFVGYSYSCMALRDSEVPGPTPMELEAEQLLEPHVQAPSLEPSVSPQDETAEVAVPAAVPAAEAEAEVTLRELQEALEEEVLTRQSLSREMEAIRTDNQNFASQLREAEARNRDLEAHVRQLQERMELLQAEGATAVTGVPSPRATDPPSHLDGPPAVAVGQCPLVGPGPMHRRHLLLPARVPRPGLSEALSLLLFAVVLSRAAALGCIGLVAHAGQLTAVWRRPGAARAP

[11] = biological target: FLT3 (human) (UniProt P36888); settings: compound 10.0 µM
[12] = tested on: FLT3 (human), P36888 [D835H]; settings: compound 10.0 µM
[13] = tested on: FLT3 (human), P36888 [D835Y]; settings: compound 10.0 µM
[14] = tested on: FLT3 (human), P36888 [ITD]; settings: compound 10.0 µM
[15] = tested on: FLT3 (human), P36888 [K663Q]; settings: compound 10.0 µM
[16] = biological target: GSK3A (human) (UniProt P49840); settings: compound 10.0 µM
[17] = biological target: JAK1 JH2 pseudokinase (human) (UniProt P23458); settings: compound 10.0 µM
[18] = tested on: KIT (human), P10721 [V559D/T670I]; settings: compound 10.0 µM
[19] = biological target: MAP2K3 (human) (UniProt P46734); settings: compound 10.0 µM
[20] = biological target: MAP4K2 (human) (UniProt Q12851); settings: compound 10.0 µM
[21] = biological target: MAPK8 (human) (UniProt P45983); settings: compound 10.0 µM
[22] = biological target: MELK (human) (UniProt Q14680); settings: compound 10.0 µM
[23] = biological target: MKNK1 (human) (UniProt Q9BUB5); settings: compound 10.0 µM
[24] = biological target: MKNK2 (human) (UniProt Q9HBH9); settings: compound 10.0 µM
[25] = biological target: MYLK3 (human) (UniProt Q32MK0); settings: compound 10.0 µM
MYLK3 (human), sequence (Q32MK0 whole entry, looked up): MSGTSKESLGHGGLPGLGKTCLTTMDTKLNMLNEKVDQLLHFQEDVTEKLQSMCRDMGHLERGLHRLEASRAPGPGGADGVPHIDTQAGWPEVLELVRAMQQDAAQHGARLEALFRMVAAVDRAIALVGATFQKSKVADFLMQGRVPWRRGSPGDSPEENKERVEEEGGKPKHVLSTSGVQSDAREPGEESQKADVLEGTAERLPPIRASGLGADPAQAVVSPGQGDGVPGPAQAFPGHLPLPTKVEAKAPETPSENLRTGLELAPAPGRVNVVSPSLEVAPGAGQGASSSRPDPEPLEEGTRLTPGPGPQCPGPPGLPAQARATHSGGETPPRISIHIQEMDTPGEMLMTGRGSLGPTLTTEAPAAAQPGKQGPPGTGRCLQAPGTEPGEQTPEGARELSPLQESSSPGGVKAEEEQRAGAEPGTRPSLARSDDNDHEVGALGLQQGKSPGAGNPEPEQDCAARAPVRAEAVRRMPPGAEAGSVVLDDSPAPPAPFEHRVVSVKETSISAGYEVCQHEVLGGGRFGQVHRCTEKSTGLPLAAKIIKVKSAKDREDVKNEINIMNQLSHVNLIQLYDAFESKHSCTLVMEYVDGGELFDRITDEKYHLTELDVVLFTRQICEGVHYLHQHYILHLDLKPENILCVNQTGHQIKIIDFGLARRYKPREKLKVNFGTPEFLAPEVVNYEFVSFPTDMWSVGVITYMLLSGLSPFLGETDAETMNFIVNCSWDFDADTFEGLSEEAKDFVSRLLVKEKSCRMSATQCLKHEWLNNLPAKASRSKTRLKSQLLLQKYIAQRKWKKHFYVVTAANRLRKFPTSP

[26] = biological target: NEK2 (human) (UniProt P51955); settings: compound 10.0 µM
[27] = biological target: PDGFRB (human) (UniProt P09619); settings: compound 10.0 µM
[28] = biological target: PIM1 (human) (UniProt P11309); settings: for kinase still bound, per cent of control: compound 10.0 µM
[29] = biological target: PIP5K1A (human) (UniProt Q99755); settings: compound 10.0 µM
[30] = biological target: PLK4 (human) (UniProt O00444); settings: compound 10.0 µM
[31] = biological target: PRKD1 (human) (UniProt Q15139); settings: compound 10.0 µM
PRKD1 (human), sequence (Q15139 whole entry, looked up): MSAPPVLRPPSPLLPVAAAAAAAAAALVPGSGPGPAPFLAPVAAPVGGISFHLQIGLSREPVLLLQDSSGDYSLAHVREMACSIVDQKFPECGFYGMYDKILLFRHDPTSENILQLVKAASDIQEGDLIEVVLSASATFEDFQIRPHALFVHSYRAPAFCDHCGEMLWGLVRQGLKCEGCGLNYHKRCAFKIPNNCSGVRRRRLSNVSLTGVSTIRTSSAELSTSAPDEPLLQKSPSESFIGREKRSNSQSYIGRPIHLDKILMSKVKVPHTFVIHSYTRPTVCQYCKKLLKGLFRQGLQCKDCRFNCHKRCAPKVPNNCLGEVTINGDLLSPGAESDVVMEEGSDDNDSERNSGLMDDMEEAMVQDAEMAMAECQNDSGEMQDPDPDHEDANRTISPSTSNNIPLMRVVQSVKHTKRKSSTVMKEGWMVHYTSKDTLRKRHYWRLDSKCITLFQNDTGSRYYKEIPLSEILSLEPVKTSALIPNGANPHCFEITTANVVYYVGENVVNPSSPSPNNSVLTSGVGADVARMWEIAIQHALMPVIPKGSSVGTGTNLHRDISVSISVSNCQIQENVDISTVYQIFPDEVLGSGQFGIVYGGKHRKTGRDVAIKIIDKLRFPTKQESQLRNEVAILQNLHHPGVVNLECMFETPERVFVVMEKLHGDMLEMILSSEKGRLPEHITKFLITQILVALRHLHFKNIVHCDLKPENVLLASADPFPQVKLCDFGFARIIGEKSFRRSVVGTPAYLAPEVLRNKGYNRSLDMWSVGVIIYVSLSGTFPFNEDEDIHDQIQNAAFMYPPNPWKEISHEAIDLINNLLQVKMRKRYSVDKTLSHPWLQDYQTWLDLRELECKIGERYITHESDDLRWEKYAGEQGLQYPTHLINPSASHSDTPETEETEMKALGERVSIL

[32] = biological target: PRKD3 (human) (UniProt O94806); settings: compound 10.0 µM
[33] = biological target: RIOK3 (human) (UniProt O14730); settings: compound 10.0 µM
[34] = biological target: RIPK4 (human) (UniProt P57078); settings: compound 10.0 µM
[35] = biological target: RPS6KA4 KD2 (human) (UniProt O75676); settings: compound 10.0 µM
[36] = biological target: RPS6KA6 KD2 (human) (UniProt Q9UK32); settings: compound 10.0 µM
[37] = biological target: STK11 (human) (UniProt Q15831); settings: compound 10.0 µM
[38] = biological target: STK16 (human) (UniProt O75716); settings: compound 10.0 µM
[39] = biological target: TGFBR2 (human) (UniProt P37173); settings: compound 10.0 µM
TGFBR2 (human), sequence (P37173 whole entry, looked up): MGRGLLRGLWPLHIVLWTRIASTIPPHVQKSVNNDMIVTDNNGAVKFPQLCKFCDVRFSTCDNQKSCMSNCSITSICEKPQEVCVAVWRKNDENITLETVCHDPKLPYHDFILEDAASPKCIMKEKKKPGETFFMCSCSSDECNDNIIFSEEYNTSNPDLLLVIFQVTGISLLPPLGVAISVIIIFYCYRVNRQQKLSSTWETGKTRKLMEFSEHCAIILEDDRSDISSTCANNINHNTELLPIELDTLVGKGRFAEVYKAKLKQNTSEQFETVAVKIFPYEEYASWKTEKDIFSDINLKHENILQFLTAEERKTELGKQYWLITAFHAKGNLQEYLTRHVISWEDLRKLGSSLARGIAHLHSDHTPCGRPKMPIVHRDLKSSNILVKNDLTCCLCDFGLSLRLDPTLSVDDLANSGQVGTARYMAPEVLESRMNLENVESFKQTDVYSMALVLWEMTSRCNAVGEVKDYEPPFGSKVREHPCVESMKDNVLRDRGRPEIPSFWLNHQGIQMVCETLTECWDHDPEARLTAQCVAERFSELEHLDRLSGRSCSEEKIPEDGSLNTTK

[40] = biological target: TNK1 (human) (UniProt Q13470); settings: compound 10.0 µM
TNK1 (human), sequence (Q13470 whole entry, looked up): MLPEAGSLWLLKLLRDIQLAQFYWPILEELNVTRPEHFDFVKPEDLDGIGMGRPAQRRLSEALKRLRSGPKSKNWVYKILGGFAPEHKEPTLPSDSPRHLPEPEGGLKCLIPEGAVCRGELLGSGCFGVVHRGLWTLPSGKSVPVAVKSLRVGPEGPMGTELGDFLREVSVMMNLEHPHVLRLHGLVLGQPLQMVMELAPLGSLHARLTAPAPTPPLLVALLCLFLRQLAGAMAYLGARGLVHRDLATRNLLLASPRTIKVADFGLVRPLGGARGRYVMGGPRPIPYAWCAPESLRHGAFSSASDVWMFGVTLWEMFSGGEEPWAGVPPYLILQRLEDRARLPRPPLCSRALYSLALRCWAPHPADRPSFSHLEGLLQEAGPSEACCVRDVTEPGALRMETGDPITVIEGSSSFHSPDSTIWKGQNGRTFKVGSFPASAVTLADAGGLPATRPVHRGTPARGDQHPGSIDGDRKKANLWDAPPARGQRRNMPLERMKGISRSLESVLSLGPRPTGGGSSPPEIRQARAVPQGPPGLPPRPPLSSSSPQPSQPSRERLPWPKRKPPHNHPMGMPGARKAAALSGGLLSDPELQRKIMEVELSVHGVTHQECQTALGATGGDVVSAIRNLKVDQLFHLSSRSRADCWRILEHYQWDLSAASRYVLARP

[41] = biological target: ULK2 (human) (UniProt Q8IYT8); settings: for kinase still bound, per cent of control: compound 10.0 µM
[42] = biological target: MYLK4 (human) (UniProt Q86YV6); settings: compound 10.0 µM

BRSK2 (human), sequence (Q8IWQ3 whole entry, looked up): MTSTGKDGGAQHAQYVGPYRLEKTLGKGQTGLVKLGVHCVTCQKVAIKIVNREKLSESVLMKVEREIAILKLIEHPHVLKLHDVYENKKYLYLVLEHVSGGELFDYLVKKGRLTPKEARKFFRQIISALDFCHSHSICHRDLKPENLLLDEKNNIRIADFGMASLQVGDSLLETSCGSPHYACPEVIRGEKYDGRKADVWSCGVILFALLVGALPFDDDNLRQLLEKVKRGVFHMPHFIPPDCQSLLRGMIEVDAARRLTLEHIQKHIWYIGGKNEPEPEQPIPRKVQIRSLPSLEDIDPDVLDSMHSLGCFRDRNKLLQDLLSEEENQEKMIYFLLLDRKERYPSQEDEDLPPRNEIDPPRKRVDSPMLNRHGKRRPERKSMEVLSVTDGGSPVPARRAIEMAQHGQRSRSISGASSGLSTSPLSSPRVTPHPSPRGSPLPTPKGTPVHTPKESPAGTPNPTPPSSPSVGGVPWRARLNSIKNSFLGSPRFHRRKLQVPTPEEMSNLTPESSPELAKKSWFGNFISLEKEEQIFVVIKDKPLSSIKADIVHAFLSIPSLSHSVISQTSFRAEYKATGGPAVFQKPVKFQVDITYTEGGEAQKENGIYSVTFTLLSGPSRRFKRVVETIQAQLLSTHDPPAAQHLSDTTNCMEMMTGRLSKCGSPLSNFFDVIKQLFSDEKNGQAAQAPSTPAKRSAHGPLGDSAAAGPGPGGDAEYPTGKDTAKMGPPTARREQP

Q: With `O=C1NC(=O)/C(=C/c2c[nH]c(=O)c(-c3ccc(N4CCNCC4)nc3)c2)S1` as the molecule, how does the kinase still bound, per cent of control [1] read?
A: 100%

Q: What about the kinase still bound, per cent of control [2] of the same molecule?
A: 70%

Q: What about the kinase still bound, per cent of control [3] of the same molecule?
A: 37%

Q: And the Kd [4]?
A: 240 nM

Q: What about the kinase still bound, per cent of control [4] of the same molecule?
A: 0.3%

Q: And the kinase still bound, per cent of control [5]?
A: 2.8%

Q: What about the kinase still bound, per cent of control [6] of the same molecule?
A: 15%

Q: What about the kinase still bound, per cent of control [7] of the same molecule?
A: 13%

Q: And the Kd [8]?
A: 9.5 nM

Q: What about the kinase still bound, per cent of control [8] of the same molecule?
A: 0.35%

Q: What about the kinase still bound, per cent of control [9] of the same molecule?
A: 2%

Q: What about the kinase still bound, per cent of control [10] of the same molecule?
A: 3.6%

Q: And the kinase still bound, per cent of control [11]?
A: 91%

Q: What about the kinase still bound, per cent of control [12] of the same molecule?
A: 71%

Q: What about the kinase still bound, per cent of control [13] of the same molecule?
A: 60%

Q: And the kinase still bound, per cent of control [14]?
A: 75%

Q: And the kinase still bound, per cent of control [15]?
A: 92%

Q: What about the kinase still bound, per cent of control [16] of the same molecule?
A: 75%

Q: And the kinase still bound, per cent of control [17]?
A: 64%

Q: And the kinase still bound, per cent of control [18]?
A: 72%

Q: And the kinase still bound, per cent of control [19]?
A: 65%

Q: And the kinase still bound, per cent of control [20]?
A: 32%

Q: What about the kinase still bound, per cent of control [21] of the same molecule?
A: 60%

Q: What about the kinase still bound, per cent of control [22] of the same molecule?
A: 24%

Q: What about the kinase still bound, per cent of control [23] of the same molecule?
A: 80%

Q: And the kinase still bound, per cent of control [24]?
A: 93%

Q: What about the kinase still bound, per cent of control [25] of the same molecule?
A: 2.6%

Q: And the kinase still bound, per cent of control [26]?
A: 13%

Q: What about the kinase still bound, per cent of control [27] of the same molecule?
A: 67%

Q: And the Kd [28]?
A: 37 nM

Q: And the kinase still bound, per cent of control [28]?
A: 0.95%

Q: And the kinase still bound, per cent of control [29]?
A: 28%

Q: What about the kinase still bound, per cent of control [30] of the same molecule?
A: 90%

Q: What about the kinase still bound, per cent of control [31] of the same molecule?
A: 8.2%

Q: And the kinase still bound, per cent of control [32]?
A: 13%

Q: What about the kinase still bound, per cent of control [33] of the same molecule?
A: 3.4%

Q: What about the kinase still bound, per cent of control [34] of the same molecule?
A: 100%

Q: And the kinase still bound, per cent of control [35]?
A: 3.2%

Q: And the kinase still bound, per cent of control [36]?
A: 29%

Q: What about the kinase still bound, per cent of control [37] of the same molecule?
A: 17%

Q: What about the kinase still bound, per cent of control [38] of the same molecule?
A: 36%

Q: And the kinase still bound, per cent of control [39]?
A: 18%

Q: What about the kinase still bound, per cent of control [40] of the same molecule?
A: 100%

Q: What about the Kd [41] of the same molecule?
A: 220 nM

Q: What about the kinase still bound, per cent of control [41] of the same molecule?
A: 0.85%

Q: What does the source list for `COc1cc(N2CCC(O)CC2)ccc1Nc1ncc2c(n1)N1CCc3cccc(c31)C(=O)N2C`?
A: kinase still bound, per cent of control [1]: 85%; kinase still bound, per cent of control [2]: 94%; kinase still bound, per cent of control [3]: 10%; kinase still bound, per cent of control [4]: 73%; kinase still bound, per cent of control [5]: 100%; kinase still bound, per cent of control [6]: 70%; kinase still bound, per cent of control [7]: 60%; kinase still bound, per cent of control [8]: 44%; kinase still bound, per cent of control [9]: 84%; kinase still bound, per cent of control [10]: 65%; kinase still bound, per cent of control [11]: 95%; kinase still bound, per cent of control [12]: 73%; kinase still bound, per cent of control [13]: 68%; kinase still bound, per cent of control [14]: 100%; kinase still bound, per cent of control [15]: 96%; kinase still bound, per cent of control [16]: 100%; kinase still bound, per cent of control [17]: 70%; kinase still bound, per cent of control [18]: 79%; kinase still bound, per cent of control [19]: 92%; kinase still bound, per cent of control [20]: 94%; kinase still bound, per cent of control [21]: 68%; kinase still bound, per cent of control [22]: 78%; kinase still bound, per cent of control [23]: 48%; kinase still bound, per cent of control [24]: 32%; kinase still bound, per cent of control [25]: 100%; kinase still bound, per cent of control [42]: 100%; kinase still bound, per cent of control [26]: 62%; kinase still bound, per cent of control [27]: 87%; kinase still bound, per cent of control [28]: 91%; kinase still bound, per cent of control [29]: 91%; kinase still bound, per cent of control [30]: 5.4%; kinase still bound, per cent of control [31]: 12%; kinase still bound, per cent of control [32]: 22%; kinase still bound, per cent of control [33]: 92%; kinase still bound, per cent of control [34]: 79%; kinase still bound, per cent of control [35]: 17%; kinase still bound, per cent of control [36]: 3.2%; kinase still bound, per cent of control [37]: 91%; kinase still bound, per cent of control [38]: 48%; kinase still bound, per cent of control [39]: 100%; kinase still bound, per cent of control [40]: 5.8%; kinase still bound, per cent of control [41]: 80%

Q: For `CN1C(=O)c2ccccc2N(C)c2nc(Nc3ccc(N4CCC(O)CC4)cc3)ncc21`, which kinase still bound, per cent of control [1] is on record?
A: 48%

Q: What about the kinase still bound, per cent of control [2] of the same molecule?
A: 100%

Q: And the kinase still bound, per cent of control [3]?
A: 95%

Q: What about the kinase still bound, per cent of control [4] of the same molecule?
A: 75%

Q: And the kinase still bound, per cent of control [5]?
A: 97%

Q: And the kinase still bound, per cent of control [6]?
A: 100%

Q: What about the kinase still bound, per cent of control [7] of the same molecule?
A: 77%

Q: What about the kinase still bound, per cent of control [8] of the same molecule?
A: 98%

Q: What about the kinase still bound, per cent of control [9] of the same molecule?
A: 68%

Q: And the kinase still bound, per cent of control [10]?
A: 100%

Q: And the kinase still bound, per cent of control [11]?
A: 100%

Q: And the kinase still bound, per cent of control [12]?
A: 28%

Q: And the kinase still bound, per cent of control [13]?
A: 24%

Q: What about the kinase still bound, per cent of control [14] of the same molecule?
A: 52%

Q: What about the kinase still bound, per cent of control [15] of the same molecule?
A: 85%

Q: And the kinase still bound, per cent of control [16]?
A: 100%

Q: And the kinase still bound, per cent of control [17]?
A: 4.8%

Q: What about the kinase still bound, per cent of control [18] of the same molecule?
A: 73%

Q: What about the kinase still bound, per cent of control [19] of the same molecule?
A: 84%

Q: And the kinase still bound, per cent of control [20]?
A: 80%

Q: And the kinase still bound, per cent of control [21]?
A: 100%

Q: And the kinase still bound, per cent of control [22]?
A: 100%

Q: What about the kinase still bound, per cent of control [23] of the same molecule?
A: 28%

Q: And the kinase still bound, per cent of control [24]?
A: 8.4%

Q: What about the kinase still bound, per cent of control [25] of the same molecule?
A: 100%

Q: What about the kinase still bound, per cent of control [42] of the same molecule?
A: 100%

Q: And the kinase still bound, per cent of control [26]?
A: 100%

Q: And the kinase still bound, per cent of control [27]?
A: 61%

Q: What about the kinase still bound, per cent of control [28] of the same molecule?
A: 91%

Q: And the kinase still bound, per cent of control [29]?
A: 100%

Q: What about the kinase still bound, per cent of control [30] of the same molecule?
A: 1.8%

Q: And the kinase still bound, per cent of control [31]?
A: 98%

Q: And the kinase still bound, per cent of control [32]?
A: 69%

Q: And the kinase still bound, per cent of control [33]?
A: 82%

Q: What about the kinase still bound, per cent of control [34] of the same molecule?
A: 61%

Q: And the kinase still bound, per cent of control [35]?
A: 89%

Q: And the kinase still bound, per cent of control [36]?
A: 63%

Q: What about the kinase still bound, per cent of control [37] of the same molecule?
A: 100%

Q: What about the kinase still bound, per cent of control [38] of the same molecule?
A: 59%

Q: What about the kinase still bound, per cent of control [39] of the same molecule?
A: 100%

Q: What about the kinase still bound, per cent of control [40] of the same molecule?
A: 0.95%

Q: And the kinase still bound, per cent of control [41]?
A: 6.2%
